Source: US10478464B2, “Compositions and methods of use” (priority 2009, dated 2019)

Assays:
[1] = tested on: PLC/PRF/5 liver cancer cell line; experiment: Cell survival, colorimetric MTT assay, PLC/PRF/5; assay type: cell-based; conditions: 100 μM, 72 hours
Description: (§1) 2) Against the liver cancer cell lines: The effect of the racemic mixture of 8-HHA and that of the individual enantiomers, namely S and R enantiomers, were examined on survival of PLC/PRF/5 (also referred to as “PLC-5” or “PLC5”), Hep3B and SNU449 (also referred to as “SNU”) liver cancer cell lines. The cell viability was examined in the exponential growth phase with 100 μM of 8-HHA for 72 hours using colorimetric MTT assay. In separate assays, PLC-5 cells were treated with different concentrations of S-enantiomer of 8-HHA ranging from 20-100 μM for 72 hours.

[2] = tested on: Hep3B liver cancer cell line; experiment: Cell survival, colorimetric MTT assay, Hep3B; assay type: cell-based; conditions: 100 μM, 72 hours
Description: as §1

[3] = tested on: non-small cell lung cancer cell lines (HOP-92, NCI-H460); experiment: NCI 60 human tumor cell line screen (MTT), non-small cell lung cancer lines; conditions: 10 μM
Description: (§2) The screening is a microplate cytotoxicity assays based on a simple colorimetric (MTT) assay which relies on the metabolic reduction of a tetrazolium dye in viable cells to a colored formazan product. A modified protocol was used for the screening of the compound and measures the inhibition of growth of various tumor cell lines. The 8-HHA tested in this assay was at the concentration of 10 μM.

[4] = tested on: PLC5 cells a Hepatocellular Carcinoma cell line; experiment: Liver xenograft mouse model (PLC5); assay type: in vivo, BALB/c nu/nu mice
Description: The purpose of this study was to determine anti tumor efficacy of 8-HHA in liver cancer using PLC5 cells a Hepatocellular Carcinoma cell line. The tumor growth and animal survival were considered as primary end point.
Animals and care: Thirty BABL/c nude, non-pregnant and nulliparous female mice that are 5-6 weeks old and weighing 16-20 gms were used in this study. BALB/c nu/nu mice were used because they have been historically used in xenograft studies to test anti-tumor efficacy of drug candidates. Mice were acclimatized for minimum 5 days, under same conditions as for the actual test. Mice were housed at room temperature 68±5° F. with room Relative Humidity of 30-70%, air Exchanges per Hour of a minimum of 10 changes per hour, lights exposure of 12-hour light/dark cycle, full spectrum fluorescent lights. The mice were housed in groups in ventilated micro-isolator cages made up of polycarbonate. The mice were using autoclaved laboratory grade bedding and were provided ad libitum with irradiated pellets and autoclaved water. There were no known contaminants present in the feed, water, or bedding expected to interfere with the test data. The laboratory and animal rooms were maintained as limited-access facilities.
Route of injection and dose: 8-HHA was administered through intraperitoneal (IP) injection. […] For this study, 2 doses-10 mg/kg and 100 mg/kg were used.
Tumor Induction: The cell line PLC5 were cultured according to recommended specifications at Vanas Oncology, in which cells were grown and maintained in RPMI medium containing 10% fetal bovine serum, 2 mM L-Glutamine, 100 units/ml of Streptomycin and 100 units/ml of Penicilin. Cells were trypizinized and counted using the Trypan-blue viability test using a hemocytometer. Cell counts in quadrants of the hemocytometer were converted to a cells/mL value, which will enable isolation of the appropriate number of cells per mouse. Each mouse was inoculated subcutaneously in the right flank region with 0.2 mL of a 50% RPMI/50% Matrigel™ mixture containing a suspension of tumor cells (5×10^6 cells/mouse). Tumors were observed twice weekly until well established. Tumor volume was calculated using the formula: Tumor weight (mg)=(a×b^2/2) where ‘b’ is the smallest diameter and ‘a’ is the largest diameter in millimeters.
Allocation of Animals: Once the established tumors reach a mean calculated volume of approximately 50-100 mg, the mice were randomized, using appropriate software, into treatment groups in order to reduce the variability of tumor sizes per group.
Pre Dose Procedure: Acclimated animals were weighed and observed for clinical signs of toxicity prior to dosing on Day 1.
The first day of dosing is Day 1. On Day 1,8-HHA, and vehicle injections were administered according to the study design in Table 7 below.
Post Dose Procedure: Following treatment, tumor and mouse body weight measurements were recorded twice weekly and gross observation was made at least once daily. Mice with tumors that are not palpable was considered complete regressions. Percentage of mice mortality and time of death will be recorded for every group in the study. Animals may be defined as moribund and sacrificed if one or more of the following criteria are met: • Loss of body weight of 20% or greater in a 1 week period. • Mice that inhibit normal physiological function such as eating, drinking, mobility, and ability to urinate and/or defecate. • Tumors that exceed a maximum size of 2000 mg as measured by calipers. • Ulcerated tumors, or tumors that bleed or produce exudates. • Prolonged, excessive diarrhea leading to excessive weight loss (>20%). • Persistent wheezing and respiratory distress. • Prolonged or excessive pain or distress as defined by clinical observations such as: prostration, hunched posture, paralysis/paresis, distended abdomen, ulcerations, abscesses, seizures, and/or hemorrhages.

[5] = tested on: colorectal cancer cell lines (HCT-116, HCT-15, KM12); experiment: NCI 60 human tumor cell line screen (MTT), colorectal lines; conditions: 10 μM; three out of 7 lines
Description: as §2

[6] = tested on: HOP-92 lung cancer cell lines; experiment: Cell survival, colorimetric MTT assay, HOP-92; assay type: cell-based, human; conditions: 100 μM, 72 hours
Description: 1) Against the lung cancer cell lines: The effect of the racemic mixture of 8-HHA and that of the individual enantiomers, namely S and R enantiomers, were examined on the survival of HOP-92 lung cancer cell lines. The cell viability was examined in the exponential growth phase with 100 μM of 8-HHA for 72 hours using colorimetric MTT assay. In separate assays, HOP-92 cells were treated with different concentrations of the S-enantiomer of 8-HHA ranging from 20-100 μM for 72 hours.

`CCCCCCCCC(O)CCCCCCC(=O)O` (racemic) [Sample 8-HHA, 8-hydroxy-palmitic acid] was tested, and the “reduced the survival of PLC-5 cell line by” value [1] was 52%, the “reduced the survival of Hep3B cell line by” value [2] was 25% and the “inhibition of growth on non-small cell lung cancer cell lines, in words” value [3] was “remarkable inhibition of growth”. For the same compound, the “tumor volume decrease compared to the control group” value (“tumor volume decrease” below) ([4]; T1 10 mg/Kg, day 4) was 44.5%, the “tumor volume decrease” value ([4]; T1 10 mg/Kg, day 9) was 49.8% and the “tumor volume decrease” value ([4]; T1 10 mg/Kg, day 11) was 72.3%. For the same compound, the “tumor volume decrease” value ([4]; T1 10 mg/Kg, day 16) was 77.7%, the “tumor volume decrease” value ([4]; T1 10 mg/Kg, day 18) was 78.4% and the “tumor volume decrease” value ([4]; T2 100 mg/Kg, day 4) was 56.3%. For the same compound, the “tumor volume decrease” value ([4]; T2 100 mg/Kg, day 9) was 61.1%, the “tumor volume decrease” value ([4]; T2 100 mg/Kg, day 11) was 81.1% and the “tumor volume decrease” value ([4]; T2 100 mg/Kg, day 16) was 87.9%. For the same compound, the “tumor volume decrease” value ([4]; T2 100 mg/Kg, day 18) was 88.3%, the “tumor growth inhibition, in words” value ([4]; both T1 (10 mg/Kg) and T2 (100 mg/Kg)) was “significantly inhibited tumor growth in mice from day 4” and the “growth suppression of colorectal cancer cell lines, in words” value [5] was “moderate evidence of growth suppression”. The “reduced the survival of HOP92 cell lines by” value [6] was 25%.
